Source: EP0934940A1, “CYTOKINE PRODUCTION INHIBITORS, TRIAZEPINE COMPOUNDS, AND INTERMEDIATES THEREOF” (Japan Tobacco Inc., priority 1996, dated 1997)
Where two headings read alike, the source gives them in different places.

Tests used:
IL-6 [1] = assay: Inhibitory activity on IL-6 production from LPS-stimulated human PBMC (ELISA); assay type: cell-based; settings: 24 h
Experimental: (§1) Inhibitory activity on cytokine production from human PBMC (peripheral blood mononuclear cell)
(§2) PBMC fractions were isolated from human blood using a mono-poly resolving medium. The cells (PBMC) were cultured in 5% FCS (fetal calf serum)/RPMI1640 medium. Thereafter, the test compound was added to the final concentration of 0.001-10 µM, and LPS (lipopolysaccharide) was added to the final concentration of 10 µg/ml. After incubatioin for 24 hours, the supernatant was separated and freeze stocked at -80°C.
(§3) On the day of experiment, the supernatant was thawed and the production amount of cytokine was measured by ELISA. IL-6 was assayed using [(h)IL-6] human, ELISA system (Amersham); TNF-α was assayed using [(h)TNF-α] human, ELISA system (Amersham); GM-CSF was assayed using human GM-CSF immunoassay (R&D systems); and IL-8 was assayed using human IL-8 immunoassay (R&D systems). The determination method followed the method of each kit. The results are expressed in IC50.

TNF-α = assay: Inhibitory activity on TNF-α production from LPS-stimulated human PBMC (ELISA); assay type: cell-based; settings: Homo sapiens, PBMC, 24 h
Experimental: as §1, §2, §3

IL-6 [2] = assay: Inhibitory activity on in vivo IL-6 production by LPS stimulation; settings: male ICR mice, LPS stimulation i.v., test compound 10 mg/kg p.o. at the same time, blood two hours later, relative to 0.5% CMC-Na group; for inhibition in vivo at 10 mg/kg: Mus musculus, po, 2 h, read-out: Inhibtion (%) of plasma IL-6 production (10 mg/kg, p.o.)
Experimental: Inhibitory activity on in vivo IL-6 production by LPS stimulation
LFS (0.3 mg/kg) was intravenously administered to male ICR mice (6-week-old) fasted for 24 hours. At the same time, the test compound suspended in 0.5% CMC-Na ( carboxymethylcellulose sodium) was orally administered at the dose of 10 mg/kg.
Two hours later, blood was taken from eyegrounds. The blood was centrifuged, and the plasma fraction was diluted and quantitatively assayed for IL-6 in blood by ELISA (Endogen EM-IL6). The inhibitory percentage of the group administered with the test compound was expressed relative to the amount of IL-6 in blood of the cup administered with 0.5% CMC-Na.

[3] = human PBMC, LPS 10 µg/ml, incubation 24 hours, supernatant ELISA, read-out: IL-6 IC50
[4] = human PBMC, LPS 10 µg/ml, incubation 24 hours, supernatant ELISA, read-out: TNF-α IC50
[5] = read-out: IL-6 IC50 (µM), human PBMC, LPS 10 µg/ml, incubation 24 hours, supernatant ELISA
[6] = read-out: TNF-α IC50 (µM), human PBMC, LPS 10 µg/ml, incubation 24 hours, supernatant ELISA

## Cc1sc2c(c1C)C(c1ccc(Cl)cc1)=NN(Cc1cc[n+]([O-])cc1)c1nnc(C)n1-2 [Example 3, 4-[4-(4-Chlorophenyl)-2,3,9-trimethyl-6H-1-thia-5,6,7,8,9a-pentaazacyclopent[e]azulen-6-ylmethyl]-pyridine-1-oxide]
IL-6 [1]; [3]
  IC50: 0.2 µM
TNF-α; [4]
  IC50: 0.05 µM

## CCc1cc2c(s1)-n1c(C)nnc1N(Cc1cc[n+]([O-])cc1)N=C2c1ccc(Cl)cc1 [Example 4, 4-[4-(4-Chlorophenyl)-2-ethyl-9-methyl-6H-1-thia-5,6,7,8,9a-pentaazacyclopent[e]azulen-6-ylmethyl]-pyridine-1-oxide]
IL-6 [1]; [3]
  IC50: 2 µM

## COC(=O)c1ccc(C2=NN(Cc3ccc(C#N)cc3)c3nnc(C)n3-c3ccccc32)cc1 [Example 7, Methyl 4-[4-(4-cyanobenzyl)-1-methyl-4H-2,3,4,5,10b-pentaazabenz[e]azulen-6-yl]benzoate]
IL-6 [1]; [3]
  IC50: 0.23 µM
TNF-α; [4]
  IC50: 0.5 µM

## Cc1nnc2n1-c1ccccc1C(c1ccc(NC(=O)OC(C)(C)C)cc1)=NN2Cc1ccc(C#N)cc1 [Example 13, tert-Butyl 4-[4-(4-cyanobenzyl)-1-methyl-4H-2,3,4,5,10b-pentaazabenz[e]azulen-6-yl]phenylcarbamate]
IL-6 [1]; [3]
  IC50: 0.02 µM
TNF-α; [4]
  IC50: < 0.01 µM

## Cc1nnc2n1-c1ccccc1C(c1ccc(NC(=O)OC(C)(C)C)cc1)=NN2Cc1ccc([N+](=O)[O-])cc1 [Example 14, tert-Butyl 4-[1 methyl-4-(4-nitrobenzyl)-4H-2,3,4,5,10b-pentaazabenz[e]azulen-6-yl]phenylcarbamate]
IL-6 [1]; [3]
  IC50: 0.02 µM
TNF-α; [4]
  IC50: < 0.01 µM

## Cc1cc2c(s1)-n1c(C)nnc1N(Cc1ccc(-c3nnn(C)n3)cc1)N=C2c1ccccc1 [Example 17, 2,9-dimethyl-4-phenyl-6-[4-(2-methyl-2H-tetrazol-5-yl)benzyl]-6H-5,6,7,8,9a-pentaazathieno[2,3-e]azulene]
TNF-α; [4]
  IC50: 0.12 µM

## Cc1ccc(CN2N=C(c3ccc(Cl)cc3)c3ccccc3-n3c(C)nnc32)cc1 [Synthetic Example 54, 6-(4-Chlorophenyl)-1-methyl-4-(4-methylbenzyl)-4H-2,3,4,5,10b-pentaazabenz[e]azulene]
IL-6 [2]
  inhibition in vivo at 10 mg/kg: 56%

## Cc1nnc2n1-c1ccccc1C(c1ccc(Cl)cc1)=NN2Cc1ccncc1 [Synthetic Example 86, 6-(4-Chlorophenyl)-1-methyl-4-(pyridin-4-ylmethyl)-4H-2,3,4,5,10b-pentaazabenz[e]azulene]
IL-6 [2]
  inhibition in vivo at 10 mg/kg: 89%

## Cc1nnc2n1-c1ccccc1C(c1ccccc1)=NN2Cc1ccncc1 [Synthetic Example 95, 1-Methyl-6-phenyl-4-(pyridin-4-ylmethyl)-4H-2,3,4,5,10b-pentaazabenz[e]azulene]
IL-6 [2]
  inhibition in vivo at 10 mg/kg: 78%

## Cc1ccc2c(c1)-n1c(C)nnc1N(Cc1ccncc1)N=C2c1ccccc1 [Synthetic Example 97, 1,9-Dimethyl-6-phenyl-4-(pyridin-4-ylmethyl)-4H-2,3,4,5,10b-pentaazabenz[e]azulene]
IL-6 [2]
  inhibition in vivo at 10 mg/kg: 98%

## Cc1nnc2n1-c1ccc([N+](=O)[O-])cc1C(c1ccccc1)=NN2Cc1ccncc1 [Synthetic Example 102, 1-Methyl-8-nitro-6-phenyl-4-(pyridin-4-ymethyl)-4H-2,3,4,5,10b-pentaazabenz[e]azulene]
IL-6 [2]
  Inhibtion (%) of plasma IL-6 production (10 mg/kg, p.o.): 78%

## Cc1ccc(C2=NN(Cc3ccncc3)c3nnc(C)n3-c3ccccc32)cc1 [Synthetic Example 103, 1-Methyl-6-(4-methylphenyl)-4-(pyridin-4-ylmethyl)-4H-2,3,4,5,10b-pentaazabenz[e]azulene]
IL-6 [2]
  inhibition in vivo at 10 mg/kg: 75%

## Cc1ccc2c(c1)-n1c(C)nnc1N(Cc1ccc(C#N)cc1)N=C2c1ccc(Cl)cc1 [Synthetic Example 108, 6-(4-Chlorophenyl)-4-(4-cyanbenzyl)-1,9-dimethyl-4H-2,3,4,5,10b-pentaazabenz[e]azulene]
IL-6 [2]
  Inhibtion (%) of plasma IL-6 production (10 mg/kg, p.o.): 70%

## Cc1nnc2n1-c1ccccc1C(c1ccc(Br)cc1)=NN2Cc1ccc(Br)cc1 [Synthetic Example 109, 4-(4-Bromobenzyl)-6-(4-bromophenyl)-1-methyl-4H-2,3,4,5,10b-pentaaabenz[e]azulene]
IL-6 [2]
  Inhibtion (%) of plasma IL-6 production (10 mg/kg, p.o.): 51%

## Cc1nnc2n1-c1ccccc1C(c1ccccc1)=NN2Cc1ccc(C#N)cc1 [Synthetic Example 111, 4-(4-Cyanobenzyl)-1-methyl-6-phenyl-4H-2,3,4,5,10b-pentaazabenz[e]azulene]
IL-6 [2]
  inhibition in vivo at 10 mg/kg: 62%

## COc1ccc(CN2N=C(c3ccc(OC)cc3)c3c(sc(C)c3C)-n3c(C)nnc32)cc1 [compound 18]
IL-6 [1]; [5]
  IC50: 0.008 µM
TNF-α; [6]
  IC50: < 0.01 µM

## Cc1sc2c(c1C)C(c1ccccc1Cl)=NN(Cc1ccncc1)c1nnc(C)n1-2 [compound 20]
IL-6 [1]; [5]
  IC50: 0.8 µM
TNF-α; [6]
  IC50: 0.06 µM

## Cc1nnc2n1-c1ccccc1C(c1ccc(Cl)cc1)=NN2Cc1ccc(C#N)cc1 [compound 39]
IL-6 [1]; [5]
  IC50: < 0.01 µM
TNF-α; [6]
  IC50: < 0.01 µM

## Cc1ccc(CN2N=C(c3ccc(Cl)cc3)c3ccccc3-n3c(C)nnc32)cc1 [compound 54]
IL-6 [1]; [5]
  IC50: 0.01 µM
TNF-α; [6]
  IC50: 0.02 µM

## Cc1nnc2n1-c1ccccc1C(c1ccc(Cl)cc1)=NN2Cc1ccncc1 [compound 86]
IL-6 [1]; [5]
  IC50: 0.08 µM
TNF-α; [6]
  IC50: 0.01 µM

## Cc1nnc2n1-c1ccccc1C(c1ccccc1)=NN2Cc1ccncc1 [compound 95]
IL-6 [1]; [5]
  IC50: 0.34 µM
TNF-α; [6]
  IC50: 0.03 µM

## Cc1ccc2c(c1)-n1c(C)nnc1N(Cc1ccncc1)N=C2c1ccccc1 [compound 97]
IL-6 [1]; [5]
  IC50: 0.22 µM
TNF-α; [6]
  IC50: 0.007 µM

## Cc1nnc2n1-c1ccc([N+](=O)[O-])cc1C(c1ccccc1)=NN2Cc1ccncc1 [compound 102]
IL-6 [1]; [5]
  IC50: 1.15 µM
TNF-α; [6]
  IC50: 0.05 µM

## Cc1ccc(C2=NN(Cc3ccncc3)c3nnc(C)n3-c3ccccc32)cc1 [compound 103]
IL-6 [1]; [5]
  IC50: 0.11 µM
TNF-α; [6]
  IC50: 0.001 µM

## Cc1ccc2c(c1)-n1c(C)nnc1N(Cc1ccc(C#N)cc1)N=C2c1ccc(Cl)cc1 [compound 108]
IL-6 [1]; [5]
  IC50: < 0.01 µM
TNF-α; [6]
  IC50: < 0.01 µM

## Cc1nnc2n1-c1ccccc1C(c1ccc(Br)cc1)=NN2Cc1ccc(Br)cc1 [compound 109]
IL-6 [1]; [5]
  IC50: < 0.01 µM
TNF-α; [6]
  IC50: 0.07 µM

## Cc1nnc2n1-c1ccccc1C(c1ccccc1)=NN2Cc1ccc(C#N)cc1 [compound 111]
IL-6 [1]; [5]
  IC50: 0.4 µM
TNF-α; [6]
  IC50: 0.07 µM

## Cc1sc2c(c1C)C(c1ccc(Cl)cc1)=NN(Cc1ccncc1)c1nnc(C)n1-2 [compound 114]
IL-6 [1]; [5]
  IC50: 0.01 µM
TNF-α; [6]
  IC50: < 0.01 µM

## Cc1sc2c(c1C)C(c1ccc(Cl)cc1)=NN(Cc1ccc(C#N)cc1)c1nnc(C)n1-2 [compound 115]
IL-6 [1]; [5]
  IC50: 0.06 µM
TNF-α; [6]
  IC50: 0.01 µM

## CCc1cc2c(s1)-n1c(C)nnc1N(Cc1ccc(C#N)cc1)N=C2c1ccc(Cl)cc1 [compound 119]
IL-6 [1]; [5]
  IC50: < 0.01 µM
TNF-α; [6]
  IC50: < 0.01 µM

## Cc1cc2c(s1)-n1c(C)nnc1N(Cc1ccncc1)N=C2c1ccccc1 [compound 121]
IL-6 [1]; [5]
  IC50: 0.04 µM
TNF-α; [6]
  IC50: < 0.01 µM

## Cc1cc2c(s1)-n1c(C)nnc1N(Cc1ccc(C#N)cc1)N=C2c1ccccc1 [compound 122]
IL-6 [1]; [5]
  IC50: < 0.01 µM
TNF-α; [6]
  IC50: < 0.01 µM

## Cc1sc2c(c1C)C(c1ccccc1)=NN(Cc1ccncc1)c1nnc(C)n1-2 [compound 125]
IL-6 [1]; [5]
  IC50: 0.02 µM
TNF-α; [6]
  IC50: < 0.01 µM

## CCc1cc2c(s1)-n1c(C)nnc1N(Cc1ccncc1)N=C2c1ccccc1 [compound 127]
IL-6 [1]; [5]
  IC50: 0.08 µM
TNF-α; [6]
  IC50: < 0.01 µM

## COc1ccc(C2=NN(Cc3ccncc3)c3nnc(C)n3-c3sc(C)c(C)c32)cc1 [compound 129]
IL-6 [1]; [5]
  IC50: 0.06 µM
TNF-α; [6]
  IC50: 0.014 µM

## Cc1nnc2n1-c1ccccc1C(c1ccc(Cl)cc1)=NC2CC(=O)Nc1ccccc1 (stereo not shown) [compound 195]
IL-6 [1]; [5]
  IC50: 3.4 µM
TNF-α; [6]
  IC50: 0.6 µM

## COc1ccc(OC)c(N2C(=O)NC3(N=C(c4ccc(Cl)cc4)c4ccccc4-n4c(C)nnc43)C2=O)c1 (stereo not shown) [compound 196]
IL-6 [1]; [5]
  IC50: 2.5 µM
TNF-α; [6]
  IC50: 0.09 µM

## Cc1nnc2n1-c1ccccc1C(c1ccc(Cl)cc1)=NC21NC(=O)N(c2ccccc2)C1=O (stereo not shown) [compound 197]
IL-6 [1]; [5]
  IC50: > 10 µM
TNF-α; [6]
  IC50: 0.3 µM

## CCOC(=O)C1(NC(=O)Nc2cc(OC)ccc2OC)N=C(c2ccc(Cl)cc2)c2ccccc2-n2c(C)nnc21 (stereo not shown) [compound 199]
IL-6 [1]; [5]
  IC50: 1.6 µM
TNF-α; [6]
  IC50: 0.01 µM

## Cc1nnc2n1-c1ccccc1C(c1ccc(Cl)cc1)=NC2NC(=O)NC1CCCCC1 (stereo not shown) [compound 203]
IL-6 [1]; [5]
  IC50: 5.7 µM
TNF-α; [6]
  IC50: 0.2 µM

## COc1ccc(OC)c(NC(=O)NC2N=C(c3ccc(Cl)cc3)c3ccccc3-n3c(C)nnc32)c1 (stereo not shown) [compound 204]
IL-6 [1]; [5]
  IC50: > 10 µM
TNF-α; [6]
  IC50: 0.4 µM

## Cc1nnc2n1-c1ccccc1C(c1ccc(Cl)cc1)=NC2NC(=O)c1cc2ccccc2[nH]1 (stereo not shown) [compound 205]
IL-6 [1]; [5]
  IC50: 3.9 µM
TNF-α; [6]
  IC50: 0.01 µM
